Results reported in the supplement of paper PMC10627819.

Experiments:
S. aureus Newman [1] = assay: fitness (endpoint OD595 vs no drug) (fraction); higher = more growth
Method in brief: (§1)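 Cultures at OD595 0.01 were dispensed into 384-well plates in TSB, LB Lennox or CY and incubated at 37 °C. Every 30 min for 14 h, OD595 was read and corrected by the first reading. Fitness is the optical density at entry into stationary phase relative to the robust mean of no-drug control wells, capped at 1.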

B. subtilis 168 [2] = assay: as above
Method in brief: as §1

S. aureus DSM 20231 [3] = assay: as above
Method in brief: as §1

S. aureus Newman [4] = assay: Bliss interaction score (quartile over a dose matrix) (fitness difference); higher = more antagonism (negative = synergy)
Method in brief: (§2)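 Quartiles of the Bliss score were taken over technical, biological and donor/recipient replicates. That score is observed fitness minus the product of the single-drug fitness values, which were inferred from combination data. Fitness itself is OD595 at entry into stationary phase divided by the plate's robust no-drug mean, with a cap at 1.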

B. subtilis 168 [5] = assay: as above
Method in brief: as §2

S. pneumoniae D39V = assay: as above
Method in brief: as §2

S. aureus DSM 20231 [6] = assay: as above
Method in brief: as §2
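Wherever Bliss interaction score (quartile over a dose matrix) is given: first quartile when negative (synergy) and third quartile when positive (antagonism).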

CC[C@H]1OC(=O)[C@H](C)[C@@H](O[C@H]2C[C@@](C)(OC)[C@@H](O)[C@H](C)O2)[C@H](C)[C@@H](O[C@@H]2O[C@H](C)C[C@H](N(C)C)[C@H]2O)[C@](C)(O)C[C@@H](C)CN(C)[C@H](C)[C@@H](O)[C@]1(C)O [Azithromycin] + CC1=C\[C@@H](O)CC(=O)Cc2nc(co2)C(=O)N2CCC=C2C(=O)O[C@H](C(C)C)[C@H](C)/C=C/C(=O)NC\C=C\1 [Virginiamycin M1]
fitness
Conditions | partner 0.0625 µg/mL | partner 0.125 µg/mL | partner 0.25 µg/mL
B. subtilis 168 [2], first compound 0.25 µg/mL | 0.911 | 0.876 | 0.97
B. subtilis 168 [2], first compound 0.5 µg/mL | 0.803 | 0.814 | 0.869
S. aureus DSM 20231 [3], first compound 0.125 µg/mL | 0.817 | 0.872 | 0.894
S. aureus DSM 20231 [3], first compound 0.25 µg/mL | 0.77 | 0.873 | 0.854
S. aureus DSM 20231 [3], first compound 0.5 µg/mL | 0.515 | 0.362 | –
S. aureus Newman [1], first compound 0.125 µg/mL | 0.912 | 0.904 | 0.912
S. aureus Newman [1], first compound 0.25 µg/mL | 0.935 | 0.913 | 0.92
S. aureus Newman [1], first compound 0.5 µg/mL | 0.744 | 0.707 | 0.722

fitness, one replicate
Conditions | first compound 0.125 µg/mL | first compound 0.25 µg/mL | first compound 0.5 µg/mL
S. aureus DSM 20231 [3], partner 0.5 µg/mL | 0.981 | 0.86 | 0.728
S. aureus DSM 20231 [3], partner 1 µg/mL | 0.791 | 0.798 | 0.505
S. aureus Newman [1], partner 0.5 µg/mL | 0.937 | 0.9 | 0.859
S. aureus Newman [1], partner 1 µg/mL | ≥ 1 | ≥ 1 | 0.89
S. aureus Newman [1], partner 2 µg/mL | 0.904 | 0.907 | 0.764

Conditions | Bliss interaction score
B. subtilis 168 [5] | 0.0627
S. aureus DSM 20231 [6] | -0.0726
S. aureus Newman [4] | 0.0851
S. pneumoniae D39V | 0.0642

CC[C@H]1OC(=O)[C@H](C)[C@@H](O[C@H]2C[C@@](C)(OC)[C@@H](O)[C@H](C)O2)[C@H](C)[C@@H](O[C@@H]2O[C@H](C)C[C@H](N(C)C)[C@H]2O)[C@](C)(O)C[C@@H](C)CN(C)[C@H](C)[C@@H](O)[C@]1(C)O [Azithromycin] + CCC[C@@H]1C[C@@H](C(=O)N[C@@H]([C@H]2O[C@H](SC)[C@H](O)[C@@H](O)[C@H]2O)[C@H](C)Cl)N(C)C1 [Clindamycin]
fitness
Conditions | first compound 0.125 µg/mL | first compound 0.25 µg/mL | first compound 0.5 µg/mL | first compound 1 µg/mL
B. subtilis 168 [2], partner 0.0625 µg/mL | – | 0.632 | 0.554 | –
B. subtilis 168 [2], partner 0.125 µg/mL | – | 0.388 | 0.379 | –
B. subtilis 168 [2], partner 0.25 µg/mL | – | 0.367 | 0.299 | 0.0793
S. aureus DSM 20231 [3], partner 0.0312 µg/mL | – | – | 0.142 | –
S. aureus DSM 20231 [3], partner 0.0625 µg/mL | – | – | 0.0702 | –
S. aureus DSM 20231 [3], partner 0.125 µg/mL | 0.0728 | 0.0466 | 0.0384 | –
S. aureus Newman [1], partner 0.0312 µg/mL | 0.693 | – | 0.481 | –
S. aureus Newman [1], partner 0.125 µg/mL | – | 0.113 | 0.0923 | –

fitness, B. subtilis 168 [2], one replicate
Conditions | first compound 0.5 µg/mL | first compound 1 µg/mL | first compound 2 µg/mL
partner 0.0039 µg/mL | 0.945 | 0.922 | 0.516
partner 0.0078 µg/mL | 0.84 | 0.776 | 0.186
partner 0.0156 µg/mL | 0.776 | 0.715 | 0.23

Conditions | Bliss interaction score
B. subtilis 168 [5] | 0.109
S. aureus DSM 20231 [6] | -0.0395
S. aureus Newman [4] | -0.0621
S. pneumoniae D39V | 0.0737

CC[C@H]1OC(=O)[C@H](C)[C@@H](O[C@H]2C[C@@](C)(OC)[C@@H](O)[C@H](C)O2)[C@H](C)[C@@H](O[C@@H]2O[C@H](C)C[C@H](N(C)C)[C@H]2O)[C@](C)(O)C[C@@H](C)CN(C)[C@H](C)[C@@H](O)[C@]1(C)O [Azithromycin] + CCN(CC)CCOC(=O)c1ccc(N)cc1 [Procaine]
fitness
Conditions | partner 85.5 µg/mL | partner 171 µg/mL | partner 342 µg/mL
B. subtilis 168 [2], first compound 0.25 µg/mL | 0.867 | 0.9 | 0.861
B. subtilis 168 [2], first compound 0.5 µg/mL | 0.777 | 0.778 | 0.787
S. aureus DSM 20231 [3], first compound 0.125 µg/mL | – | 0.905 | 0.912
S. aureus DSM 20231 [3], first compound 0.5 µg/mL | 0.441 | – | 0.426
S. aureus Newman [1], first compound 0.125 µg/mL | 0.871 | 0.864 | 0.843
S. aureus Newman [1], first compound 0.25 µg/mL | 0.803 | 0.877 | 0.779
S. aureus Newman [1], first compound 0.5 µg/mL | 0.408 | – | 0.401

Conditions | Bliss interaction score
B. subtilis 168 [5] | -0.0562
S. aureus DSM 20231 [6] | -0.0967
S. aureus Newman [4] | -0.0635
S. pneumoniae D39V | 0.0533

CC[C@H]1OC(=O)[C@H](C)[C@@H](O[C@H]2C[C@@](C)(OC)[C@@H](O)[C@H](C)O2)[C@H](C)[C@@H](O[C@@H]2O[C@H](C)C[C@H](N(C)C)[C@H]2O)[C@](C)(O)C[C@@H](C)CN(C)[C@H](C)[C@@H](O)[C@]1(C)O [Azithromycin] + CN1C2=CC=CC=C2N=C3C1=CC=CC3=O [Pyocyanin]
fitness
Conditions | partner 1.25 µg/mL | partner 2.5 µg/mL | partner 5 µg/mL
B. subtilis 168 [2], first compound 0.25 µg/mL | 0.838 | 0.792 | 0.648
B. subtilis 168 [2], first compound 0.5 µg/mL | – | 0.631 | –
S. aureus DSM 20231 [3], first compound 0.125 µg/mL | 0.851 | 0.789 | 0.694
S. aureus DSM 20231 [3], first compound 0.25 µg/mL | 0.797 | 0.8 | 0.666
S. aureus Newman [1], first compound 0.125 µg/mL | 0.865 | 0.788 | –
S. aureus Newman [1], first compound 0.25 µg/mL | 0.856 | 0.759 | –
S. aureus Newman [1], first compound 0.5 µg/mL | – | – | 0.21

Conditions | Bliss interaction score
B. subtilis 168 [5] | -0.0732
S. aureus DSM 20231 [6] | -0.0596
S. aureus Newman [4] | 0.0847
S. pneumoniae D39V | -0.0827

CC[C@H]1OC(=O)[C@H](C)[C@@H](O[C@H]2C[C@@](C)(OC)[C@@H](O)[C@H](C)O2)[C@H](C)[C@@H](O[C@@H]2O[C@H](C)C[C@H](N(C)C)[C@H]2O)[C@](C)(O)C[C@@H](C)CN(C)[C@H](C)[C@@H](O)[C@]1(C)O [Azithromycin] + CN(N=O)C(=O)N[C@@H](C=O)[C@@H](O)[C@H](O)[C@H](O)CO [Streptozotocin]
fitness
Conditions | partner 0.15 µg/mL | partner 0.3 µg/mL | partner 0.6 µg/mL
B. subtilis 168 [2], first compound 0.25 µg/mL | 0.938 | 0.952 | 0.918
B. subtilis 168 [2], first compound 0.5 µg/mL | 0.897 | 0.902 | 0.842
S. aureus DSM 20231 [3], first compound 0.125 µg/mL | 0.796 | 0.742 | 0.703
S. aureus DSM 20231 [3], first compound 0.25 µg/mL | 0.72 | 0.73 | 0.736
S. aureus DSM 20231 [3], first compound 0.5 µg/mL | 0.37 | 0.293 | –
S. aureus Newman [1], first compound 0.125 µg/mL | 0.81 | 0.707 | 0.564
S. aureus Newman [1], first compound 0.25 µg/mL | 0.811 | 0.76 | 0.657
S. aureus Newman [1], first compound 0.5 µg/mL | 0.576 | 0.5 | 0.367

Conditions | Bliss interaction score
B. subtilis 168 [5] | 0.0551
S. aureus DSM 20231 [6] | -0.0752
S. aureus Newman [4] | 0.0643
S. pneumoniae D39V | 0.0501
